The NIST ThermoML archive (doi:10.1016/j.jct.2010.12.014)
Where “and” joins values, the source holds several entries; their conditions need not be identical. Equal values may be shown once. Numbers after ± are expanded uncertainties.

How the values were obtained:
[1] = 298.15 K; 101.33 kPa; Liquid; Vibrating tube method
[2] = refractive index (Na D-line) (dimensionless); details: 298.15 K; 101.33 kPa; Liquid; Standard Abbe refractometry
[3] = xn = mol fraction of the nth substance listed; details: 298.15 K, 101 kPa, Liquid, Vibrating tube method

SMILES | mass density [1] [kg/m3] | refractive index [2] | also measured
CCOS(=O)(=O)[O-].CCn1cc[n+](C)c1 [1-ethyl-3-methylimidazolium ethyl sulfate] + C1CCCCC1 |  |  | mass density ([3]; x2 = 0.027): 1230.94 ± 0.41 kg/m3
CCOS(=O)(=O)[O-].CCn1cc[n+](C)c1 [1-ethyl-3-methylimidazolium ethyl sulfate] + CC1CCCCC1 |  |  | mass density ([3]; x2 = 0.026): 1232.26 ± 0.42 kg/m3
CCOS(=O)(=O)[O-].CCn1cc[n+](C)c1 [1-ethyl-3-methylimidazolium ethyl sulfate] + CCc1ccccc1 |  |  | mass density ([3]; x2 = 0.124): 1210.43 ± 0.35 kg/m3 and 1210.4 ± 0.35 kg/m3
C1CCCCC1 [cyclohexane] | 773.8 ± 0.13 | 1.4236 ± 0.00031 | 
C1CCCCCCC1 [cyclooctane] | 831.47 ± 0.24 | 1.45598 ± 0.00037 | 
C1CCCCCCC1 [cyclooctane] + CCOS(=O)(=O)[O-].CCn1cc[n+](C)c1 |  |  | mass density ([3]; x1 = 0.012): 1232.65 ± 0.42 kg/m3
CC1CCCCC1 [methylcyclohexane] | 765.02 ± 0.13 | 1.42062 ± 0.00031 | 

More lines, main results first:

mass density [1] [kg/m3] | refractive index [2] | SMILES | also measured
1237.23 ± 0.43 | 1.4791 ± 0.00037 | CCOS(=O)(=O)[O-].CCn1cc[n+](C)c1 [1-ethyl-3-methylimidazolium ethyl sulfate] | 
862.51 ± 0.11 | 1.49304 ± 0.00031 | CCc1ccccc1 [ethylbenzene] | 
